According to patent US20260306460A1, “COMPOSITION FOR REMOVING AND INHIBITING SENESCENT CELLS, AND USES THEREOF” (LIFECEUTIX CO., LTD., priority 2023, published 2026):

Tests used:
[1] = tested on: SAOS-2; assay: Suppression of doxorubicin-senescent SAOS-2 tumors in nude mice, Example 19; format: in vivo, mouse; settings: after DOX 10 mg/kg ip; 21 days daily; LX-5701 360 mg/kg po, LX-2101 20 mg/kg ip, LX-2102 10 mg/kg ip; DOX repeated as control
Method: Seven-week-old male BALB/c nude mice (KRIBB Laboratory Animal Resource Center) were acclimated to the experimental environment for one week, after which they were randomly assigned to experimental and control groups. Evaluation was performed using the same method as in Example 2-1 of WO2023-085787 A1. Cultured human osteosarcoma cell lines, SAOS-2 (10^6 cells), were mixed in phosphate-buffered saline (PBS) and administered subcutaneously to anesthetized mice using 2% isoflurane (Sigma). When the tumors reached approximately […], doxorubicin (10 mg/kg) was mixed in a 1:1 solution of distilled water and PBS (pH 7.2) and administered intraperitoneally to induce tumor senescence. After 10 days, LX-5701 mixed in PBS at a concentration of 360 mg/kg was administered orally daily for 21 days, or LX-2101 mixed in PBS solution with 5% DMSO at a concentration of 20 mg/kg or LX-2102 mixed in PBS with 5% DMSO at a concentration of 10 mg/kg was administered intraperitoneally daily for 21 days, and then the tumor size was measured. The control group was repeatedly administered a solution mixed with doxorubicin, and then the tumor size was measured.

[2] = tested on: HMGN1 secreted from senescent A549 cells; assay: HMGN1 secretion (ELISA) from senescent A549 cancer cells, Example 12; format: cell-based, human; settings: senescent untreated = 100%; 30 μM; 90 μM for LX-305, 905, 1302, 1601, 1603, 2003, 2702, 2901, 3106; 270 μM for LX-1103, 2005, 2007;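 further: A549 cells made senescent by doxorubicin exposure, with DMSO-treated cells serving as the non-senescent control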
Method: (§2) Cells were treated with doxorubicin or control (DMSO) and cultured.

[3] = tested on: naturally aged mice; assay: Anti-aging evaluation in naturally aged mice, Example 31, Table 55; format: in vivo, mouse; settings: for Femur Ctsk mRNA / Kidney Agtr1a mRNA / Liver IL6 mRNA / Liver MMP3 mRNA / Liver p16 mRNA / Open Field Test Time in Center: untreated = 100%; for Heart Sur2a mRNA / Joint Col2a1 mRNA / Skin Col1a1 mRNA / Skin SDF1 mRNA: untreated = 1.0; for Muscle Mass: untreated 0.64 g; for Fat Mass: untreated 0.82 g; for Cataract incidence: untreated 83%;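 on all read-outs here: Vehicle-dosed control mice received solution alone at matching volume, values compare test-compound-treated aged mice against that control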
[4] = tested on: bleomycin-induced pulmonary fibrosis mice; assay: Bleomycin-induced pulmonary fibrosis mice, Example 31, Table 56; format: in vivo, mouse; settings: untreated = 100%
Procedure, shortened: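 Mice with bleomycin-induced pulmonary fibrosis, untreated or given test compound, with vehicle-only controls. Lung tissue collected for RNA extraction and qRT-PCR analysis.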

[5] = tested on: senescent foreskin cells; assay: Survival of senescent human cells treated with supernatant (secreted fluid) from death-induced cells, Example 13; format: cell-based; settings: Table 8; supernatant from dying senescent cells treated at 30, 90 or 270 μM (as Example 11); senescent treated cells
[6] = tested on: carbon tetrachloride-induced liver fibrosis mice; assay: Carbon tetrachloride-induced liver fibrosis mice, Example 31, Table 57; format: in vivo, mouse; settings: CCl4-induced liver fibrosis mice, untreated = 100%
Procedure, shortened: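 Mice with induced hepatic fibrosis received either the test compound or, as controls, an equal volume of vehicle solution alone. Once dosing ended, liver tissue was harvested and total RNA was isolated. cDNA was synthesized from this RNA, and quantitative RT-PCR was run on it to measure hepatic mRNA levels of the fibrosis- and senescence-related genes.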

[7] = tested on: naturally aged mice; assay: p16, MMP3, IL6 mRNA in liver of naturally aged mice (qRT-PCR), Example 15; format: in vivo, mouse; settings: untreated aged = 100%, 5 days
Method: (§1) In the same manner as in Example 7-1 of WO2023-085787 A1, naturally aged mice were administered LX-405 (5% DMSO in PBS solution, 10 mg/kg, intraperitoneal administration), LX-801 (PBS, 100 mg/kg, intraperitoneal administration), LX-1102 (0.5% CMC-Na solution, 100 mg/kg, oral administration), LX-1801 (PBS, 50 mg/kg, intraperitoneal administration), LX-2101 (0.5% CMC-Na solution, 10 mg/kg, intraperitoneal administration), and LX-3403 (mouse anti-PD-1 antibody (BioXcell), 100 μg, intraperitoneal administration) for 5 days under the following conditions. The control group was administered only the solution in the same volume. After drug administration was completed, the method described in each Example below was performed. The mouse was sacrificed in the same manner as Example 7-2 and 7-6 of WO2023-085787 A1. Total RNA was extracted from liver tissue, and qRT-PCR was performed and analyzed using synthesized cDNA. […] The mRNA amounts of p16, MMP3, and IL6 after natural aging were induced were calculated as 100% and compared them with the mRNA amounts of p16, MMP3, and IL6 after treatment with the test compound. Furthermore, an open field test was performed to analyze aging-related frailty in mice using the same method as Example 7-7 of WO2023-085787 A1. […] The amount of activity evaluated after inducing aging was calculated as 100% and compared it with the amount of activity evaluated after treatment with the test compound.

[8] = tested on: naturally aged mice; assay: Open field test in naturally aged mice, Example 15; format: in vivo, mouse; settings: untreated aged = 100%; 5 days; doses as p16 mRNA
Method: as §1

[9] = tested on: HMGN1 secreted from senescent human cells; assay: HMGN1 secretion (ELISA) from doxorubicin-induced senescent human cells, Example 11; format: cell-based; settings: senescent untreated = 100%; 30 μM; 90 μM for LX-305, 1302, 1603, 2005, 2702, 2901, 3106; 270 μM for LX-1103, 2007
[10] = tested on: senescent human cells; assay: Viability of doxorubicin-induced senescent human cells (CellTiter-Glo), Example 11; format: cell-based; settings: 0 μM = 100
Method: Cells in which senescence was induced by treatment with doxorubicin were treated with the test compound at designated concentrations and measured using the CellTiter-Glo Luminescent Cell Viability Assay (Promega).
After 3 days, cell viability was measured using CellTiter-Glo Luminescent Cell Viability Assay (Promega) or light microscopy.

[11] = tested on: senescent A549 cells; assay: Viability of senescent A549 cancer cells (CellTiter-Glo), Example 12; format: cell-based, human; settings: 0 μM = 100
Method: as §2
Cancer cells in which aging was induced by treatment with doxorubicin were treated with the test compound at designated concentrations and measured using the CellTiter-Glo Luminescent Cell Viability Assay (Promega).

Compound	HMGN1 [2] [%]	Femur Ctsk mRNA [3] [%]	Heart Sur2a mRNA [3] [fold]	Joint Col2a1 mRNA [3] [fold]	Kidney Agtr1a mRNA [3] [%]	Liver IL6 mRNA [3] [%]	Liver MMP3 mRNA [3] [%]	Liver p16 mRNA [3] [%]	Open Field Test Time in Center [3] [%]	Skin Col1a1 mRNA [3] [Fold]	Skin SDF1 mRNA [3] [fold]	Muscle Mass [3] [g]	Fat Mass [3] [g]	Cataract incidence [3] [%]	Lung p16 mRNA [4]	Col1a1 mRNA [4]	Survival [5]	Liver p16 mRNA [6]	Col1a1 mRNA [6]	HMGN1 [9] [%]	other results
COc1cccc2c1C(=O)c1c(O)c3c(c(O)c1C2=O)C[C@@](O)(C(=O)CO)C[C@@H]3O[C@H]1C[C@H](N)[C@H](O)[C@H](C)O1 [DOX, doxorubicin]																					Tumor Diameter [1]: 16.1 (±0.9) mm
Fc1ccc(-n2cc(CCCCN3CCC4(CC3)OCc3ccccc34)c3ccccc32)cc1 [LX-1102, Siramesine]	324	62	1.8	1.7	80	74	71	58	148	2.5	2.3	0.65	0.95	77	59 (±3.9) %	68 (±4.1) %	52.9	76 (±2.8) %	64 (±4.7) %		p16 mRNA ([7]; LX-405 10 mg/kg ip, LX-801 100 mg/kg ip, LX-1102 100 mg/kg po, LX-1801 50 mg/kg ip, LX-2101 10 mg/kg ip, LX-3403 100 μg ip): 75.2 (±5.5) %; IL6 mRNA ([7]; doses as p16 mRNA): 84.5 (±8.9) %; MMP3 mRNA ([7]; doses as p16 mRNA): 89.7 (±12.5) %; Open Field Test Time in Center [8]: 163 (±7.9) %
C[N+](C)(C)CCO.C[N+](C)(C)CCO.[SH-].[SH-].[S]=[Mo]=[S] [LX-2601]	193	60	2.7	2.3	73	75	77	73	166	2.3	1.9	0.71	0.88	80	81 (±5.2) %	67 (±3.0) %	67.3	75 (±3.2) %	63 (±2.6) %	263	Survival ([10]; 1.1 μM): 95.2%; Survival ([10]; 10 μM): 58.6%; Survival ([10]; 30 μM): 21.8%; Survival ([10]; […]): 81.8%; Survival ([11]; 1.1 μM): 98.6%; Survival ([11]; 10 μM): 59.7%; Survival ([11]; 30 μM): 50.7%; Survival ([11]; […]): 86%
CCOC(=O)[C@@H](N)CCC(=O)N[C@@H](CSCc1ccccc1)C(=O)N[C@@H](C(=O)OCC)c1ccccc1 [LX-2602, Ezatiostat]	283	59	1.7	2.2	61	80	64	71	158	2.5	2.0	0.69	0.84	81	68 (±3.5) %	58 (±2.9) %	69.5	77 (±3.9) %	82 (±3.7) %	208	Survival ([10]; 1.1 μM): 97.3%; Survival ([10]; 10 μM): 76.9%; Survival ([10]; 30 μM): 47.6%; Survival ([10]; […]): 92.5%; Survival ([11]; 1.1 μM): 102.7%; Survival ([11]; 10 μM): 96%; Survival ([11]; 30 μM): 32.5%; Survival ([11]; […]): 107.4%
CN(Cc1cnc2nc(N)nc(N)c2n1)c1ccc(C(=O)N[C@@H](CCC(=O)O)C(=O)O)cc1 [LX-2901, Methotrexate]	189	51	1.7	4.0	67	55	72	64	167	1.7	1.8	0.69	0.90	59	72 (±5.7) %	61 (±4.3) %	97.5	59 (±1.3) %	73 (±3.6) %	167	Survival ([10]; 1.1 μM): 103.3%; Survival ([10]; 10 μM): 104.8%; Survival ([10]; 30 μM): 93.6%; Survival ([10]; 90 μM): 49.9%; Survival ([10]; […]): 97.8%; Survival ([11]; 1.1 μM): 89%; Survival ([11]; 10 μM): 90.4%; Survival ([11]; 30 μM): 92.3%; Survival ([11]; 90 μM): 37.2%; Survival ([11]; […]): 87.8%
Cc1nc(-c2nc(-c3ccc(OC(F)(F)F)cc3)no2)nn1Cc1cccc(N2CCC(S(C)(=O)=O)CC2)c1 [LX-3200]	305	68	1.4	1.3	62	67	71	77	188	1.4	1.6	0.69	1.03	72	76 (±5.7) %	63 (±6.9) %	54.9	75 (±9.8) %	80 (±9.6) %	234	Survival ([10]; 1.1 μM): 92.2%; Survival ([10]; 10 μM): 14.3%; Survival ([10]; […]): 78.6%; Survival ([11]; 1.1 μM): 94.9%; Survival ([11]; 10 μM): 61.6%; Survival ([11]; 30 μM): 1.6%; Survival ([11]; […]): 91.7%
